Source: ChEMBL document CHEMBL1201862, “PubChem BioAssay data set” (2004)
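Cultured in 96-well plates, cells were exposed to test compound for 48 hours across five concentrations. At the GI50, growth is halved.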 The source made the active and inactive calls. Cut-off read from the data, not from the text of the source: active = GI50 up to about 1.1 µM and inactive = higher.

How the values were obtained:
Assay in all cases: NCI anticancer screen, dose series, 48 h
TK-10 = system: TK-10
SK-MEL-5 = system: SK-MEL-5
SN12C = system: SN12C
786-0 = system: 786-0
NCI-H460 = system: NCI-H460
MOLT-4 = system: MOLT-4
KM12 = system: KM12
KM-20L2 = system: KM-20L2
LOX IMVI = system: LOX IMVI
RXF 393 = system: RXF 393
HCC 2998 = system: HCC 2998
HOP-62 = system: HOP-62
UO-31 = system: UO-31
ACHN = system: ACHN
CCRF-CEM = system: CCRF-CEM
HT-29 = system: HT-29
HL-60 = system: HL-60
HCT-15 = system: HCT-15
DLD-1 = system: DLD-1
NCI-H23 = system: NCI-H23
OVCAR-8 = system: OVCAR-8
UACC-62 = system: UACC-62
HCT-116 = system: HCT-116
SK-MEL-28 = system: SK-MEL-28
DMS-273 = system: DMS-273
OVCAR-5 = system: OVCAR-5
A549 = system: A549
SNB-78 = system: SNB-78
UACC-257 = system: UACC-257
EKVX = system: EKVX
SW-620 = system: SW-620
HOP-18 = system: HOP-18
RPMI-8226 = system: RPMI-8226
SF-539 = system: SF-539
SK-MEL-2 = system: SK-MEL-2
COLO 205 = system: COLO 205
M14 = system: M14
IGROV-1 = system: IGROV-1
OVCAR-3 = system: OVCAR-3
A498 = system: A498
HOP-92 = system: HOP-92
DMS-114 = system: DMS-114
SR = system: SR
K562 = system: K562
U-251 = system: U-251
NCI-H226 = system: NCI-H226
SNB-75 = system: SNB-75
OVCAR-4 = system: OVCAR-4
SF-268 = system: SF-268
LXFL 529 = system: LXFL 529
NCI-H522 = system: NCI-H522
SF-295 = system: SF-295
M19-MEL = system: M19-MEL
SK-OV-3 = system: SK-OV-3
Malme-3M = system: Malme-3M
SNB-19 = system: SNB-19
CAKI-1 = system: CAKI-1

Structure (SMILES): O=C1c2cccc(NCCCNCCO)c2C(=O)c2cccc(NCCCNCCO)c21
- GI50 (TK-10): 3 µM (inactive)
- GI50 (SK-MEL-5): 1.78 µM (inactive)
- GI50 (SN12C): 1.26 µM (inactive)
- GI50 (786-0): 1.96 µM (inactive)
- GI50 (NCI-H460): 1.68 µM (inactive)
- GI50 (MOLT-4): 1.35 µM (inactive)
- GI50 (KM12): 1.92 µM (inactive)
- GI50 (KM-20L2): 2.34 µM (inactive)
- GI50 (LOX IMVI): 2.1 µM (inactive)
- GI50 (RXF 393): 2.95 µM (inactive)
- GI50 (HCC 2998): 1.08 µM (active)
- GI50 (HOP-62): 2.43 µM (inactive)
- GI50 (UO-31): 9.68 µM (inactive)
- GI50 (ACHN): 1.59 µM (inactive)
- GI50 (CCRF-CEM): 1.34 µM (inactive)
- GI50 (HT-29): 1.41 µM (inactive)
- GI50 (HL-60): 1.36 µM (inactive)
- GI50 (HCT-15): 7.31 µM
- GI50 (DLD-1): 3.13 µM (inactive)
- GI50 (NCI-H23): 2.99 µM (inactive)
- GI50 (OVCAR-8): 1.86 µM (inactive)
- GI50 (UACC-62): 1.76 µM (inactive)
- GI50 (HCT-116): 1.56 µM (inactive)
- GI50 (SK-MEL-28): 1.96 µM (inactive)
- GI50 (DMS-273): 2.02 µM (inactive)
- GI50 (OVCAR-5): 2.65 µM (inactive)
- GI50 (A549): 1.99 µM (inactive)
- GI50 (SNB-78): 2.06 µM (inactive)
- GI50 (UACC-257): 3.56 µM (inactive)
- GI50 (EKVX): 2.32 µM (inactive)
- GI50 (SW-620): 1.46 µM (inactive)
- GI50 (HOP-18): 2.67 µM (inactive)
- GI50 (RPMI-8226): 1.97 µM (inactive)
- GI50 (SF-539): 1.86 µM (inactive)
- GI50 (SK-MEL-2): 1.92 µM (inactive)
- GI50 (COLO 205): 1.36 µM (inactive)
- GI50 (M14): 2.09 µM (inactive)
- GI50 (IGROV-1): 2.56 µM (inactive)
- GI50 (OVCAR-3): 2.53 µM (inactive)
- GI50 (A498): 2.17 µM (inactive)

Structure (SMILES): CC(N)CC(=O)O (stereo unspecified)
- GI50 (TK-10): > 5000 µM (inactive)
- GI50 (SK-MEL-5): > 5000 µM (inactive)
- GI50 (SN12C): > 5000 µM (inactive)
- GI50 (786-0): > 5000 µM (inactive)
- GI50 (HOP-92): > 5 mM (inactive)
- GI50 (DMS-114): > 5 mM (inactive)
- GI50 (SR): > 5 mM (inactive)
- GI50 (K562): > 5 mM (inactive)
- GI50 (NCI-H460): > 5000 µM (inactive)
- GI50 (U-251): > 5 mM (inactive)
- GI50 (MOLT-4): > 5000 µM (inactive)
- GI50 (KM12): > 5000 µM (inactive)
- GI50 (KM-20L2): > 5000 µM (inactive)
- GI50 (RXF 393): > 5000 µM (inactive)
- GI50 (NCI-H226): > 5 mM (inactive)
- GI50 (HCC 2998): > 5000 µM (inactive)
- GI50 (UO-31): > 5000 µM (inactive)
- GI50 (ACHN): > 5000 µM (inactive)
- GI50 (CCRF-CEM): > 5000 µM (inactive)
- GI50 (HT-29): > 5000 µM (inactive)
- GI50 (HL-60): > 5000 µM (inactive)
- GI50 (HCT-15): > 5000 µM
- GI50 (DLD-1): > 5000 µM (inactive)
- GI50 (SNB-75): > 5 mM (inactive)
- GI50 (NCI-H23): > 5000 µM (inactive)
- GI50 (OVCAR-4): > 5 mM (inactive)
- GI50 (UACC-62): > 5000 µM (inactive)
- GI50 (HCT-116): > 5000 µM (inactive)
- GI50 (SK-MEL-28): > 5000 µM (inactive)
- GI50 (DMS-273): > 5000 µM (inactive)
- GI50 (OVCAR-5): > 5000 µM (inactive)
- GI50 (A549): 2850 µM (inactive)
- GI50 (SNB-78): > 5000 µM (inactive)
- GI50 (SF-268): > 5 mM (inactive)
- GI50 (LXFL 529): > 5 mM (inactive)
- GI50 (NCI-H522): > 5 mM (inactive)
- GI50 (UACC-257): > 5000 µM (inactive)
- GI50 (EKVX): > 5000 µM (inactive)
- GI50 (SF-295): > 5 mM (inactive)
- GI50 (SW-620): > 5000 µM (inactive)
- GI50 (M19-MEL): > 5 mM (inactive)
- GI50 (HOP-18): > 5000 µM (inactive)
- GI50 (SK-OV-3): > 5 mM (inactive)
- GI50 (RPMI-8226): > 5000 µM (inactive)
- GI50 (SF-539): > 5000 µM (inactive)
- GI50 (SK-MEL-2): > 5000 µM (inactive)
- GI50 (COLO 205): > 5000 µM (inactive)
- GI50 (M14): > 5000 µM (inactive)
- GI50 (Malme-3M): > 5 mM (inactive)
- GI50 (IGROV-1): > 5000 µM (inactive)
- GI50 (OVCAR-3): > 5000 µM (inactive)
- GI50 (A498): > 5000 µM (inactive)

Structure (SMILES): CCC(=O)OC1CCn2c1nc1c2C(=O)C(C)=C(NC(C)=O)C1=O (stereo unspecified)
- GI50 (TK-10): 5.12 µM (inactive)
- GI50 (SNB-19): 2.9 µM (inactive)
- GI50 (SK-MEL-5): 1.83 µM (inactive)
- GI50 (SN12C): 1.79 µM (inactive)
- GI50 (786-0): 3.48 µM (inactive)
- GI50 (HOP-92): 0.00169 mM (inactive)
- GI50 (DMS-114): 0.000425 mM (active)
- GI50 (SR): 0.00191 mM (inactive)
- GI50 (K562): 0.00187 mM (inactive)
- GI50 (NCI-H460): 3.22 µM (inactive)
- GI50 (U-251): 0.00208 mM (inactive)
- GI50 (MOLT-4): 1.41 µM (inactive)
- GI50 (CAKI-1): 1.92 µM (inactive)
- GI50 (KM12): 1.92 µM (inactive)
- GI50 (LOX IMVI): 1.37 µM (inactive)
- GI50 (RXF 393): 1.73 µM (inactive)
- GI50 (NCI-H226): 0.00169 mM (inactive)
- GI50 (HCC 2998): 2.31 µM (inactive)
- GI50 (HOP-62): 11.7 µM (inactive)
- GI50 (UO-31): 2.22 µM (inactive)
- GI50 (ACHN): 3.59 µM (inactive)
- GI50 (CCRF-CEM): 0.736 µM (active)
- GI50 (HT-29): 1.69 µM (inactive)
- GI50 (HL-60): 0.796 µM (active)
- GI50 (DLD-1): 1.84 µM (inactive)
- GI50 (SNB-75): 0.00501 mM (inactive)
- GI50 (NCI-H23): 1.76 µM (inactive)
- GI50 (OVCAR-8): 0.641 µM (active)
- GI50 (OVCAR-4): 0.000198 mM (active)
- GI50 (UACC-62): 1.93 µM (inactive)
- GI50 (HCT-116): 1.67 µM (inactive)
- GI50 (SK-MEL-28): 2.22 µM (inactive)
- GI50 (DMS-273): 1.79 µM (inactive)
- GI50 (OVCAR-5): 1.92 µM (inactive)
- GI50 (A549): 2.05 µM (inactive)
- GI50 (SNB-78): 1.79 µM (inactive)
- GI50 (SF-268): 0.00174 mM (inactive)
- GI50 (LXFL 529): 0.00141 mM (inactive)
- GI50 (NCI-H522): 0.00154 mM (inactive)
- GI50 (UACC-257): 1.69 µM (inactive)
- GI50 (EKVX): 2.03 µM (inactive)
- GI50 (SF-295): 0.00223 mM (inactive)
- GI50 (SW-620): 1.49 µM (inactive)
- GI50 (M19-MEL): 0.00176 mM (inactive)
- GI50 (SK-OV-3): 0.00387 mM (inactive)
- GI50 (RPMI-8226): 1.93 µM (inactive)
- GI50 (SF-539): 1.75 µM (inactive)
- GI50 (SK-MEL-2): 1.89 µM (inactive)
- GI50 (COLO 205): 3.52 µM (inactive)
- GI50 (M14): 1.89 µM (inactive)
- GI50 (Malme-3M): 0.00161 mM (inactive)
- GI50 (IGROV-1): 2.19 µM (inactive)
- GI50 (OVCAR-3): 0.236 µM (active)
- GI50 (A498): 18.4 µM (inactive)
